From patent publication US12370166B2, “Pentadecanoylcarnitine for treatment of conditions related to the quality of aging and longevity” (EPITRACKER, INC., priority 2021, dated 2025)

What was measured:
BT cell system = experiment: Human primary cell phenotypic profiling, BT cell system (asthma, oncology, autoimmunity, allergy); format: cell-based; conditions: 6.7 μM stated for pentadecanoylcarnitine
Experimental: Methods for this human primary cell phenotypic profiling study were those previously described (Venn-Watson, S., Lumpkin, R., Dennis, E. A. Efficacy of dietary odd-chain saturated fatty acid pentadecanoic acid parallels broad associated health benefits in humans: could it be essential? Sci Rep 10:8161 (2020)). Significant activities of pentadecanoylcarnitine were those that were equal to or greater than 0.1|log 10| at 6.7 μM. Biomarkers with significant changes caused by pentadecanoylcarnitine were compared with results from the same study using pentadecanoic acid (C15:0).

Cannabinoid receptor 2 = Cannabinoid receptor 2 (Homo sapiens, UniProt P34972); experiment: Receptor-based pharmacological activity, agonist; format: biochemical; conditions: for EC50: read-out: RC50 (EC50); for Pharmacological activity at cannabinoid receptor 2: at approximately 1 to 20 μM
Experimental: (§1) Methods for this study have been previously described (Venn-Watson, S., Lumpkin, R., Dennis, E. A. Efficacy of dietary odd-chain saturated fatty acid pentadecanoic acid parallels broad associated health benefits in humans: could it be essential? Sci Rep 10:8161 (2020)). Significant activities of pentadecanoylcarnitine were those tagged as having maximum pharmacological activities that were greater than or equal to 70% that of the internal control between the concentrations of 1 to 20 μM. Significant pharmacological activities caused by pentadecanoylcarnitine were compared with results from the same assays using pentadecanoic acid (C15:0).

[1] = target: T1, Cholinergic receptor muscarinic 2 (Homo sapiens, UniProt P08172); experiment: Receptor-based pharmacological activity, agonist; format: biochemical; conditions: positive control Acetylcholine chloride; for EC50: read-out: RC50 (EC50)
T1 sequence (P08172 1-466): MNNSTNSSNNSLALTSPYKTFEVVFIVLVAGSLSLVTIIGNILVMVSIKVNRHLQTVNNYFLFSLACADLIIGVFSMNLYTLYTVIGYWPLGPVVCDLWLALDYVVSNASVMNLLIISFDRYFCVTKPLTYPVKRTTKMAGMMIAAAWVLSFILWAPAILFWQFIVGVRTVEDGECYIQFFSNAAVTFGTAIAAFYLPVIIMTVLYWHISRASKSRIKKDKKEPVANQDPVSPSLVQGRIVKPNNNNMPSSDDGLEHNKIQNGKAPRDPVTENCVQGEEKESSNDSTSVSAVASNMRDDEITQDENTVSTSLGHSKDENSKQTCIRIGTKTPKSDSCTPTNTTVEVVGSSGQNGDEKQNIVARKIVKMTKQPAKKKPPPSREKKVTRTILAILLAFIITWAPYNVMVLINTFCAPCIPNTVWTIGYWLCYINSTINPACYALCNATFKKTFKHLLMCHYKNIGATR
Experimental: as §1

Cannabinoid receptor 1 = Cannabinoid receptor 1 (Homo sapiens, UniProt P21554); experiment: Receptor-based pharmacological activity, agonist; format: biochemical; conditions: for EC50: read-out: RC50 (EC50); for Pharmacological activity at cannabinoid receptor 1: at approximately 1 to 20 μM
Experimental: as §1

5-HT1B receptor = 5-HT1B receptor (Homo sapiens, UniProt P28222); experiment: Receptor-based pharmacological activity, agonist; format: biochemical; conditions: for EC50: read-out: RC50 (EC50)
Experimental: as §1

5-HT1A receptor = target: T2, 5-HT1A receptor (Homo sapiens, UniProt P08908); experiment: Receptor-based pharmacological activity, agonist; format: biochemical; conditions: for EC50: read-out: RC50 (EC50)
T2 sequence (P08908 1-422): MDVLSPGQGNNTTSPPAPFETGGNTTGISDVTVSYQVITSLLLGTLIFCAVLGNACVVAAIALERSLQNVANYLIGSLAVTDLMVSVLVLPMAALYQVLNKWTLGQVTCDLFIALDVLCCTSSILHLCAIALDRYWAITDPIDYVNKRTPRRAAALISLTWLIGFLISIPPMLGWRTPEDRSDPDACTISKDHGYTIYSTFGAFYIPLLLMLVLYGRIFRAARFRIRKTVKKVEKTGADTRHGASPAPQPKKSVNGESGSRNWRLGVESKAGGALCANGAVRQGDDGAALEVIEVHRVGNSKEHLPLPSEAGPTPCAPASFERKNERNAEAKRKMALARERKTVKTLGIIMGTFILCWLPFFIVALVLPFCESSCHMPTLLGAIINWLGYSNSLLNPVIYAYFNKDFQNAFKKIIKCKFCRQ
Experimental: as §1

Dopamine receptor D1 = Dopamine receptor D1 (Homo sapiens, UniProt P21728); experiment: Receptor-based pharmacological activity, antagonist; format: biochemical; conditions: for IC50: read-out: RC50 (IC50)
Experimental: as §1

Histamine H2 receptor = Histamine H2 receptor (Homo sapiens, UniProt P25021); experiment: as above; format: biochemical; conditions: for IC50: read-out: RC50 (IC50)
Experimental: as §1

Histamine H1 receptor = Histamine H1 receptor (Homo sapiens, UniProt P35367); experiment: as above; format: biochemical; conditions: for IC50: read-out: RC50 (IC50)
Experimental: as §1

[2] = target: T3, Cholinergic receptor muscarinic 1 (Homo sapiens, UniProt P11229); experiment: as above; format: biochemical; conditions: for IC50: read-out: RC50 (IC50)
T3 sequence (P11229 1-460): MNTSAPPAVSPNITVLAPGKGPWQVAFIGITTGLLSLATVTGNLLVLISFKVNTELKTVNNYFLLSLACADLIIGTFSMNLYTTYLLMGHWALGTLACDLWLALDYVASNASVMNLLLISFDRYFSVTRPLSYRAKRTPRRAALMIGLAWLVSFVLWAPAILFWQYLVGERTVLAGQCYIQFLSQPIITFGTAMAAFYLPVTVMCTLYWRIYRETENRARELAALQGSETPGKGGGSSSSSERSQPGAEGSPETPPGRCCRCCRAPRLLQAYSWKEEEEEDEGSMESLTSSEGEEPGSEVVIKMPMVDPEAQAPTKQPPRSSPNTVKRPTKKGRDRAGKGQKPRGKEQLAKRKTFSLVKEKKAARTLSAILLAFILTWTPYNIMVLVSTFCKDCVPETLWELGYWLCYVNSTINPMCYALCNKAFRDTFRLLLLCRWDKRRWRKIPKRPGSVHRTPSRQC
Experimental: as §1

[3] = Agonist, positive control CP 55940
[4] = Agonist, positive control Serotonin hydrochloride, 1 to 20 μM, read-out: Max Response (%) Compared to Positive Control
[5] = Agonist, positive control Serotonin hydrochloride
[6] = Antagonist, positive control SCH 39166
[7] = Antagonist, positive control Tiotidine
[8] = Antagonist, positive control Mepyramine
[9] = Antagonist, positive control Atropine
[10] = Agonist, positive control CP 55940, 1 to 20 μM
[11] = listed as pentadecenoyl carnitine
[12] = Agonist, positive control Serotonin hydrochloride, 1 to 20 μM

Cannabinoid receptor 2, sequence (P34972 whole entry): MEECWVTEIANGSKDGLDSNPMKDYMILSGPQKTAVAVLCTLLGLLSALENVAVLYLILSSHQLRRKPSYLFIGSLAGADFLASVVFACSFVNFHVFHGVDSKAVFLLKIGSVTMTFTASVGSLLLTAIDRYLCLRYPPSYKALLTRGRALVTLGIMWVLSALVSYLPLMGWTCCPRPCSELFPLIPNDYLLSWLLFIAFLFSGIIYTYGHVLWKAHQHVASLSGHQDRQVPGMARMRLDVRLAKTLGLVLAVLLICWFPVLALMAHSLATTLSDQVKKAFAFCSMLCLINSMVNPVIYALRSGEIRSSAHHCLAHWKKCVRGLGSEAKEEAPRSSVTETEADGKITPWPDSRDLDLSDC
Histamine H1 receptor, sequence (P35367 whole entry): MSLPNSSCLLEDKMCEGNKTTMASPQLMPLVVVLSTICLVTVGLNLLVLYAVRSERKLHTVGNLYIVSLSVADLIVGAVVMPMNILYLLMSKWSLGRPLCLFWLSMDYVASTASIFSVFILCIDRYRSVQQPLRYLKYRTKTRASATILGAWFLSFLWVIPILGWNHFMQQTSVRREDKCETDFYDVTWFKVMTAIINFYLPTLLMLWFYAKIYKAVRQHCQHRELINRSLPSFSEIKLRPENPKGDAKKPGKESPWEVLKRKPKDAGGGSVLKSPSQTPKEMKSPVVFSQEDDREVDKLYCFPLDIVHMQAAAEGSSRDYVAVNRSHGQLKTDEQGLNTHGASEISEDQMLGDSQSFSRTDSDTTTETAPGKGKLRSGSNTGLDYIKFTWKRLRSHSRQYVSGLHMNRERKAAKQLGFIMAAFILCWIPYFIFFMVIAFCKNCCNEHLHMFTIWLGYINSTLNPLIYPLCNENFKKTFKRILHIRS
5-HT1B receptor, sequence (P28222 whole entry): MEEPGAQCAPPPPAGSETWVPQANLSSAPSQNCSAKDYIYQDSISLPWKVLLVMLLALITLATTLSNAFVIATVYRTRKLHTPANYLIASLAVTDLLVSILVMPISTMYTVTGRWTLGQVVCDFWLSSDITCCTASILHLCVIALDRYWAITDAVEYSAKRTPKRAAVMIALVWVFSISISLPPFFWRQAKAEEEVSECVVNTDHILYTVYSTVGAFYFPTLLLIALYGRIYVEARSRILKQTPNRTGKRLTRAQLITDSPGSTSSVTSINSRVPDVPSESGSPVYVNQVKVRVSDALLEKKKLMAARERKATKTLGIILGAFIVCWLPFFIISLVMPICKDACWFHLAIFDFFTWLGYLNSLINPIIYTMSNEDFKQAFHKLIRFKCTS
Histamine H2 receptor, sequence (P25021 whole entry): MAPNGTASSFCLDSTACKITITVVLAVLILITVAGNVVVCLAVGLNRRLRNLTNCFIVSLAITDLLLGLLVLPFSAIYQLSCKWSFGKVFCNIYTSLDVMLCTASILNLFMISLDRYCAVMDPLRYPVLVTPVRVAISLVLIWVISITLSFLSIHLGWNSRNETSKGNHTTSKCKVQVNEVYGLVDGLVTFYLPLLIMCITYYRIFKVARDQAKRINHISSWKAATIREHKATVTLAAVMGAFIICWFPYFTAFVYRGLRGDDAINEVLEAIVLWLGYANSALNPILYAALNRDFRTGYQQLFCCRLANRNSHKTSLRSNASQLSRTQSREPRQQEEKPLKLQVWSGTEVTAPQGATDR
Dopamine receptor D1, sequence (P21728 whole entry, species assumed): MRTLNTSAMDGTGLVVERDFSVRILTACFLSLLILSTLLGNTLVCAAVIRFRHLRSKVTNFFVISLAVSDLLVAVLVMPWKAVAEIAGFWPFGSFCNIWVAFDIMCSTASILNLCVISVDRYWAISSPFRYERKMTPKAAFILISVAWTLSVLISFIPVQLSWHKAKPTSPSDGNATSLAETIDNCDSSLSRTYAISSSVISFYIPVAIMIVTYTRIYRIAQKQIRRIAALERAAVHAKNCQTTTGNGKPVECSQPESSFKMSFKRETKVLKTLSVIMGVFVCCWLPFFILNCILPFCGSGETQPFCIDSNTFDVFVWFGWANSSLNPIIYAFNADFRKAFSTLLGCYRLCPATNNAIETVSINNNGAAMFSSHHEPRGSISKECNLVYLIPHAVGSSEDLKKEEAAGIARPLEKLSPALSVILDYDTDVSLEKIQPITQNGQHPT
Cannabinoid receptor 1, sequence (P21554 whole entry, species assumed): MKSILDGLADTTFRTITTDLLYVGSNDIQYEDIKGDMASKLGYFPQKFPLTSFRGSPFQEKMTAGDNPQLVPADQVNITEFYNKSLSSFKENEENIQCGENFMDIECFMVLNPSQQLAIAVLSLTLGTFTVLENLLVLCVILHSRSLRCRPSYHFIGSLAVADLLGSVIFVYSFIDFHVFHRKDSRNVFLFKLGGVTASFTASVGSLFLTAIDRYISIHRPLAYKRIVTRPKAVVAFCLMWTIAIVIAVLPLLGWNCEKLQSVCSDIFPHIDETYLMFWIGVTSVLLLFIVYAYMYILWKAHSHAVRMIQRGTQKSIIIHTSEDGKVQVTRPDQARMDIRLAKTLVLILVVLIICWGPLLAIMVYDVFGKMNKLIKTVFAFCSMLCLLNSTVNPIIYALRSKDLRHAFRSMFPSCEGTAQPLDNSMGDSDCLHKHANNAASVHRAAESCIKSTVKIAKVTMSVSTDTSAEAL

In the case of `CCCCCCCCCCCCCCC(=O)O` [Pentadecanoic acid (C15:0), Pentadecanoic acid], the sIL-6 biomarker change (BT cell system) is reported as “+0.12 log 10”, the sTNF-α biomarker change (BT cell system) is reported as “+0.14 log 10” and the Emax (Cannabinoid receptor 2; Agonist, positive control CP 55940, 1 to 20 μM, read-out: Max Response (%) Compared to Positive Control) is reported as 22%. The EC50 (Cannabinoid receptor 2; [3]) was > 20 µM, the Emax ([1]; 1 to 20 μM, read-out: Max Response (%) Compared to Positive Control) was 2% and the EC50 [1] was > 20 µM. For the same compound, the EC50 (Cannabinoid receptor 1; [3]) was > 20 µM, the Emax (Cannabinoid receptor 1; read-out: Max Response (%) Compared to Positive Control) was 25% and the Emax (5-HT1B receptor; [4]) was 0%. The EC50 (5-HT1B receptor; [5]) was > 20 µM, the Emax (5-HT1A receptor; [4]) was 0% and the EC50 (5-HT1A receptor; [5]) was > 20 µM. The Emax (Dopamine receptor D1; Antagonist, positive control SCH 39166, 1 to 20 μM, read-out: Max Response (%) Compared to Positive Control) was 4%, the IC50 (Dopamine receptor D1; [6]) was > 20 µM and the Emax (Histamine H2 receptor; Antagonist, positive control Tiotidine, 1 to 20 μM, read-out: Max Response (%) Compared to Positive Control) was 2%. The IC50 (Histamine H2 receptor; [7]) was > 20 µM, the Emax (Histamine H1 receptor; Antagonist, positive control Mepyramine, 1 to 20 μM, read-out: Max Response (%) Compared to Positive Control) was 5% and the IC50 (Histamine H1 receptor; [8]) was > 20 µM. For the same compound, the Emax ([2]; Antagonist, positive control Atropine, 1 to 20 μM, read-out: Max Response (%) Compared to Positive Control) was 0% and the IC50 [2, 9] was > 20 µM.

For `CCCCCCCCCCCCCCC(=O)O[C@H](CC(=O)[O-])C[N+](C)(C)C` [Pentadecanoylcarnitine, pentadecanoylcarnitine], the sIL-6 biomarker change (BT cell system) was −0.13 log 10, the sTNF-α biomarker change (BT cell system) was −0.10 log 10 and the “Max Response (%) Compared to Positive Control” value (Cannabinoid receptor 2; [10]) was 106%. For the same compound, the EC50 (Cannabinoid receptor 2; [3]) was 3.2 µM, the “Pharmacological activity at cannabinoid receptor 2” value (Cannabinoid receptor 2) was “agonist” and the “Pharmacological activity at cannabinoid receptor 2” value (Cannabinoid receptor 2; [11]) was “fully activates”. The “Max Response (%) Compared to Positive Control” value ([1]; 1 to 20 μM) was 206%, the EC50 [1] was 3.9 µM and the “Max Response (%) Compared to Positive Control” value (Cannabinoid receptor 1; [10]) was 111%. The EC50 (Cannabinoid receptor 1; [3]) was 3.7 µM, the “Pharmacological activity at cannabinoid receptor 1” value (Cannabinoid receptor 1) was “agonist” and the “Pharmacological activity at cannabinoid receptor 1” value (Cannabinoid receptor 1; [11]) was “fully activates”. The “Max Response (%) Compared to Positive Control” value (5-HT1B receptor; [12]) was 74%, the EC50 (5-HT1B receptor; [5]) was 9.3 µM and the “Pharmacological activity at 5-HT1B receptor” value (5-HT1B receptor; at approximately 1 to 20 μM) was “agonist”. The “Max Response (%) Compared to Positive Control” value (5-HT1A receptor; [12]) was 78%, the EC50 (5-HT1A receptor; [5]) was 9.6 µM and the “Pharmacological activity at 5-HT1A receptor” value (5-HT1A receptor; at approximately 1 to 20 μM) was “agonist”. The “Max Response (%) Compared to Positive Control” value (Dopamine receptor D1; Antagonist, positive control SCH 39166, 1 to 20 μM) was 105%, the IC50 (Dopamine receptor D1; [6]) was 6.2 µM and the “Pharmacological activity at dopamine receptor D1” value (Dopamine receptor D1; at approximately 1 to 20 μM) was “antagonist”. The “Max Response (%) Compared to Positive Control” value (Histamine H2 receptor; Antagonist, positive control Tiotidine, 1 to 20 μM) was 98%, the IC50 (Histamine H2 receptor; [7]) was 6.1 µM and the “Pharmacological activity at histamine H2 receptor” value (Histamine H2 receptor; at approximately 1 to 20 μM) was “antagonist”. For the same compound, the “Max Response (%) Compared to Positive Control” value (Histamine H1 receptor; Antagonist, positive control Mepyramine, 1 to 20 μM) was 71%, the IC50 (Histamine H1 receptor; [8]) was 10.9 µM and the “Pharmacological activity at histamine H1 receptor” value (Histamine H1 receptor; at approximately 1 to 20 μM) was “antagonist”. For the same compound, the “Max Response (%) Compared to Positive Control” value ([2]; Antagonist, positive control Atropine, 1 to 20 μM) was 77%, the IC50 [2, 9] was 10.5 µM and the “Pharmacological activity at cholinergic receptor muscarinic 1” value ([2]; at approximately 1 to 20 μM) was “antagonist”.
